Values of other authors in patent publication US20140332438A1, “WATER-SOLUBLE MELOXICAM GRANULES” (Boehringer Ingelheim Vetmedica GmbH, priority 2002, published 2014).

Conditions: aqueous solution, according to EP-A-0 945 134

- solubility in water: does not dissolve readily in water
SMILES: Cc1cnc(NC(=O)C2=C(O)c3ccccc3S(=O)(=O)N2C)s1 [meloxicam, 4-hydroxy-2-methyl-N-(5-methyl-2-thiazolyl)-2H-1,2-benzothiazine-3-carboxamide-1,1-dioxide]
